Assay results from patent US20240336629A1, “Tricyclic Derivatives Useful As PARP7 Inhibitors” (JACOBIO PHARMACEUTICALS CO., LTD., priority 2021, published 2024).

tested on: lung cancer cell line H1373 (high expression of PARP7); assay: Lung cancer cell proliferation inhibition experiment (CTG method); format: cell-based; details: H1373 cells, 144 hrs incubation, Cell Titer Glo

Structure (SMILES) | IC50 [µM]
COc1ccc(Cn2ncc(N3CC[C@H]3COCCC(=O)N3CCN4c5ncc(C(F)(F)F)cc5N(C)C(=O)[C@@H]4C3)c(C(F)(F)F)c2=O)cc1 (single isomer, unassigned) [Compound 87A] | 0.0058
COc1ccc(Cn2ncc(N3CC[C@H]3COCCC(=O)N3CCN4c5ncc(C(F)(F)F)cc5N(C)C(=O)[C@H]4C3)c(C(F)(F)F)c2=O)cc1 (single isomer, unassigned) [Compound 87B] | 0.00535

same assay, conditions: Homo sapiens, NCI-H1373, 144 h, H1373 cells, 144 hrs incubation, Cell Titer Glo

Structure (SMILES) | IC50 [µM]
C[C@@H](COCCC(=O)N1CCN2c3ncc(C(F)(F)F)cc3N(CC(F)(F)F)C(=O)C2C1)Nc1cn[nH]c(=O)c1C(F)(F)F (some centres unmarked) [Compound 8] | 0.203
C[C@@H](COCCC(=O)N1CCN2c3ncc(C(F)(F)F)cc3NCCC2C1)Nc1cn[nH]c(=O)c1C(F)(F)F (some centres unmarked) [Compound 37] | 0.203

molecular target: PARP7 enzyme (Homo sapiens (Human), UniProt Q7Z3E1); assay: PARP7 enzymatic experiment (HTRF assay); format: biochemical; details: 4PL fit
Sequence (Q7Z3E1 456-657): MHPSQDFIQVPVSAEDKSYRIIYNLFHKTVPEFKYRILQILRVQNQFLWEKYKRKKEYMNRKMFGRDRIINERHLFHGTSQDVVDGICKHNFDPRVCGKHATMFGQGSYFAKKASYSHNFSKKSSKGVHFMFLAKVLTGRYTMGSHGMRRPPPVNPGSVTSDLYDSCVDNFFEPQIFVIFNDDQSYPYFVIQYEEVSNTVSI

Structure (SMILES) | IC50 [µM]
CC(C)N1C(=O)[C@H]2CN(C(=O)CCOC[C@H](C)Nc3cn[nH]c(=O)c3C(F)(F)F)CCN2c2ncc(C(F)(F)F)cc21 (single isomer, unassigned) [Compound 24B] | 0.00317
C[C@@H](COCCC(=O)N1CCN2c3ncc(Br)cc3SCC[C@@H]2C1)Nc1cn[nH]c(=O)c1C(F)(F)F (single isomer, unassigned) [Compound 72B] | 0.00724
C[C@@H](COCCC(=O)N1CCN2c3ncc(Cl)cc3SCC[C@H]2C1)Nc1cn[nH]c(=O)c1C(F)(F)F (single isomer, unassigned) [Compound 73B] | 0.0179
C[C@@H](COCCC(=O)N1CCN2c3ncc(C(F)(F)F)cc3NC(=O)CC2C1)Nc1cn[nH]c(=O)c1C(F)(F)F (some centres unmarked) [Compound 1A] | 0.0343
C[C@@H](COCCC(=O)N1CCc2c(c(=O)n(C)c3cc(C(F)(F)F)cnc23)C1)Nc1cn[nH]c(=O)c1C(F)(F)F [Compound 12] | 0.00292
C[C@@H](COCCC(=O)N1CCN2c3nc(F)c(Cl)cc3N(C)C(=O)[C@H]2C1)Nc1cn[nH]c(=O)c1C(F)(F)F [Compound 14B] | 0.0399
C[C@@H](COCCC(=O)N1CCN2c3ncc(C(F)(F)F)cc3N(C)C(=O)[C@@H]2C1)Nc1cn[nH]c(=O)c1Cl [Compound 31A] | 0.0258
C[C@@H](COCCC(=O)N1CCN2c3ncc(C(F)(F)F)cc3N(C)C(=O)[C@H]2C1)Nc1cn[nH]c(=O)c1Cl [Compound 31B] | 0.059
C[C@@H](COCCC(=O)N1CCN2c3ncc(C(F)(F)F)cc3N(C)C(=O)[C@@H]2C1)Nc1cn[nH]c(=O)c1Br [Compound 32A] | 0.00825
C[C@@H](COCCC(=O)N1CCN2c3ncc(C(F)(F)F)cc3N(C)C(=O)[C@H]2C1)Nc1cn[nH]c(=O)c1Br [Compound 32B] | 0.02
C[C@@H](COC[C@H](O)C(=O)N1CCN2c3ncc(Cl)cc3OCCC2C1)Nc1cn[nH]c(=O)c1C(F)(F)F (some centres unmarked) [Compound 64B] | 0.00946
C[C@@H](COCCC(=O)N1CCN2c3ncc(C(F)(F)F)cc3[S@+]([O-])CC[C@@H]2C1)Nc1cn[nH]c(=O)c1C(F)(F)F [Compound 74A] | 0.00216
C[C@@H](COCCC(=O)N1CCN2c3ncc(C(F)(F)F)cc3[S@+]([O-])CC[C@H]2C1)Nc1cn[nH]c(=O)c1C(F)(F)F [Compound 74B] | 0.00223
C[C@@H](COCCC(=O)N1CCN2c3ncc(C(F)(F)F)cc3[S@@+]([O-])CC[C@@H]2C1)Nc1cn[nH]c(=O)c1C(F)(F)F [Compound 74C] | 0.0554
C[C@@H](COCCC(=O)N1CCN2c3ncc(C(F)(F)F)cc3[S@@+]([O-])CC[C@H]2C1)Nc1cn[nH]c(=O)c1C(F)(F)F [Compound 74D] | 0.0722
C[C@@H](COCCC(=O)N1CCN2c3ncc(C(F)(F)F)cc3S(=O)(=O)CC[C@@H]2C1)Nc1cn[nH]c(=O)c1C(F)(F)F [Compound 75A] | 0.00364
C[C@@H](COCCC(=O)N1CCN2c3ncc(C(F)(F)F)cc3S(=O)(=O)CC[C@H]2C1)Nc1cn[nH]c(=O)c1C(F)(F)F [Compound 75B] | 0.0135
C[C@@H](COCCC(=O)N1CCN2c3ncc(C(F)(F)F)cc3C(C)(O)CC2C1)Nc1cn[nH]c(=O)c1C(F)(F)F (some centres unmarked) [Compound 78] | 0.00283
CC(COCCC(=O)N1CCN2c3ncc(Cl)cc3OCCC2C1)Oc1cn[nH]c(=O)c1C(F)(F)F (centres unmarked) [Compound 84] | 0.00401
